In ChEMBL document CHEMBL2401728, “An unexpected Dimroth rearrangement leading to annelated thieno[3,2-d][1,2,3]triazolo[1,5-a]pyrimidines with potent antitumor activity” (Eur J Med Chem, 2013):

Key:
Assay type in all cases: functional
[1] = system: TK-10; experiment: Cytotoxicity against human TK10 cells assessed as cellular growth at 100 uM after 48 hrs by SRB assay relative to control
[2] = system: COLO 205; experiment: Cytotoxicity against human COLO205 cells after 48 hrs by SRB assay; settings: COLO 205, 48 h
[3] = system: OVCAR-8; experiment: Cytotoxicity against human OVCAR8 cells assessed as cellular growth at 1 uM after 48 hrs by SRB assay relative to control
[4] = system: SK-OV-3; experiment: Cytotoxicity against human SKOV3 cells after 48 hrs by SRB assay; settings: SK-OV-3, 48 h
[5] = system: Hs-578T; experiment: Cytotoxicity against human Hs578T cells assessed as cellular growth at 0.01 uM after 48 hrs by SRB assay relative to control
[6] = system: HCT-15; experiment: Cytotoxicity against human HCT15 cells assessed as cellular growth at 0.1 uM after 48 hrs by SRB assay relative to control
[7] = system: RXF 393; experiment: Cytotoxicity against human RXF393 cells assessed as cellular growth at 100 uM after 48 hrs by SRB assay relative to control
[8] = system: KM12; experiment: Cytotoxicity against human KM12 cells assessed as cellular growth at 1 uM after 48 hrs by SRB assay relative to control
[9] = system: CCRF-CEM; experiment: Cytotoxicity against human CCRF-CEM cells assessed as cellular growth at 0.01 uM after 48 hrs by SRB assay relative to control
[10] = system: SNB-19; experiment: Cytotoxicity against human SNB19 cells after 48 hrs by SRB assay; settings: SNB-19, 48 h
[11] = system: NCI-H226; experiment: Cytotoxicity against human NCI-H226 cells assessed as cellular growth at 1 uM after 48 hrs by SRB assay relative to control
[12] = system: 786-0; experiment: Cytotoxicity against human 786-0 cells assessed as cellular growth at 100 uM after 48 hrs by SRB assay relative to control
[13] = Cytotoxicity against human NCI-ADR-RES cells assessed as cellular growth at 0.1 uM after 48 hrs by SRB assay relative to control
[14] = system: M14; experiment: Cytotoxicity against human M14 cells after 48 hrs by SRB assay; settings: M14, 48 h
[15] = Cytotoxicity against human NCI-ADR-RES cells assessed as cellular growth at 0.01 uM after 48 hrs by SRB assay relative to control
[16] = system: HL-60(TB); experiment: Cytotoxicity against human HL-60(TB) cells assessed as cellular growth at 100 uM after 48 hrs by SRB assay relative to control
[17] = system: SN12C; experiment: Cytotoxicity against human SN12C cells assessed as cellular growth at 0.01 uM after 48 hrs by SRB assay relative to control
[18] = system: KM12; experiment: Cytotoxicity against human KM12 cells assessed as cellular growth at 100 uM after 48 hrs by SRB assay relative to control
[19] = system: DU-145; experiment: Cytotoxicity against human DU145 cells assessed as cellular growth at 0.1 uM after 48 hrs by SRB assay relative to control
[20] = system: T47D; experiment: Cytotoxicity against human T47D cells assessed as cellular growth at 0.1 uM after 48 hrs by SRB assay relative to control
[21] = system: U-251; experiment: Cytotoxicity against human U251 cells assessed as cellular growth at 1 uM after 48 hrs by SRB assay relative to control
[22] = system: UO-31; experiment: Cytotoxicity against human UO31 cells assessed as cellular growth at 0.1 uM after 48 hrs by SRB assay relative to control
[23] = system: K562; experiment: Cytotoxicity against human K562 cells assessed as cellular growth at 0.1 uM after 48 hrs by SRB assay relative to control
[24] = system: OVCAR-4; experiment: Cytotoxicity against human OVCAR4 cells assessed as cellular growth at 0.1 uM after 48 hrs by SRB assay relative to control
[25] = system: NCI-H522; experiment: Cytotoxicity against human NCI-H522 cells after 48 hrs by SRB assay; settings: NCI-H522, 48 h
[26] = system: A498; experiment: Cytotoxicity against human A498 cells assessed as cellular growth at 0.1 uM after 48 hrs by SRB assay relative to control
[27] = system: 786-0; experiment: Cytotoxicity against human 786-0 cells after 48 hrs by SRB assay; settings: 786-0, 48 h
[28] = system: SNB-19; experiment: Cytotoxicity against human SNB19 cells assessed as cellular growth at 1 uM after 48 hrs by SRB assay relative to control
[29] = system: DU-145; experiment: Cytotoxicity against human DU145 cells assessed as cellular growth at 1 uM after 48 hrs by SRB assay relative to control
[30] = system: MCF7; experiment: Cytotoxicity against human MCF7 cells assessed as cellular growth at 0.1 uM after 48 hrs by SRB assay relative to control
[31] = system: SF-539; experiment: Cytotoxicity against human SF539 cells after 48 hrs by SRB assay; settings: SF-539, 48 h
[32] = system: SF-268; experiment: Cytotoxicity against human SF268 cells after 48 hrs by SRB assay; settings: SF-268, 48 h
[33] = system: 786-0; experiment: Cytotoxicity against human 786-0 cells assessed as cellular growth at 10 uM after 48 hrs by SRB assay relative to control
[34] = system: MDA-MB-435; experiment: Cytotoxicity against human MDA-MB-435 cells assessed as cellular growth at 1 uM after 48 hrs by SRB assay relative to control
[35] = read-out: LC50 (the source's name)
[36] = read-out: pLC50 (the source's name) (converted)

`O=C(CCCn1c2c(sc3ccccc32)c(=O)n2nnc(-c3ccccc3)c12)NCCc1c[nH]cn1` gave an Activity [1] of -79%, a GI50 ([2]; read-out: GI50) of 0.332 µM and a CC50 [2, 35] of 5.9 µM. The TGI ([2]; read-out: TGI) was 2.23 µM, the GI50 ([2]; read-out: pGI50 (converted)) was 0.331 µM and the CC50 [2, 36] was 5.89 µM. The TGI ([2]; read-out: pTGI (converted)) was 2.24 µM, the Activity [3] was 32% and the GI50 ([4]; read-out: GI50) was 2.39 µM. The CC50 [4, 35] was 29.2 µM, the TGI ([4]; read-out: TGI) was 8.5 µM and the GI50 ([4]; read-out: pGI50 (converted)) was 2.4 µM. For the same compound, the CC50 [4, 36] was 29.5 µM, the TGI ([4]; read-out: pTGI (converted)) was 8.51 µM and the Activity [5] was 109%. For the same compound, the Activity [6] was 78%, the Activity [7] was -61% and the Activity [8] was 39%. The Activity [9] was 56%, the GI50 ([10]; read-out: GI50) was 5.12 µM and the CC50 [10, 35] was 54.3 µM. The TGI ([10]; read-out: TGI) was 22.1 µM, the GI50 ([10]; read-out: pGI50 (converted)) was 5.13 µM and the CC50 [10, 36] was 53.7 µM. The TGI ([10]; read-out: pTGI (converted)) was 21.9 µM, the Activity [11] was 101% and the Activity [12] was -68%. The Activity [13] was 97%, the GI50 ([14]; read-out: GI50) was 0.327 µM and the TGI ([14]; read-out: TGI) was 2.05 µM. The GI50 ([14]; read-out: pGI50 (converted)) was 0.324 µM, the TGI ([14]; read-out: pTGI (converted)) was 2.04 µM and the Activity [15] was 101%. The Activity [16] was -89%, the Activity [17] was 50% and the Activity [18] was -100%. It also gave an Activity [19] of 87%, an Activity [20] of 55% and an Activity [21] of 36%. It also gave an Activity [22] of 106%, an Activity [23] of 23% and an Activity [24] of 100%. It also gave a GI50 ([25]; read-out: GI50) of 0.0435 µM, a CC50 [25, 35] of over 100 µM and a TGI ([25]; read-out: TGI) of 3.11 µM. The GI50 ([25]; read-out: pGI50 (converted)) was 0.0437 µM, the TGI ([25]; read-out: pTGI (converted)) was 3.09 µM and the Activity [26] was 72%. The GI50 ([27]; read-out: GI50) was 1.05 µM, the CC50 [27, 35] was 5.34 µM and the TGI ([27]; read-out: TGI) was 2.37 µM. The GI50 ([27]; read-out: pGI50 (converted)) was 1.05 µM, the CC50 [27, 36] was 5.37 µM and the TGI ([27]; read-out: pTGI (converted)) was 2.34 µM. It also gave an Activity [28] of 65%, an Activity [29] of 55% and an Activity [30] of 75%. The GI50 ([31]; read-out: GI50) was 0.0206 µM, the CC50 [31, 35] was 3.14 µM and the TGI ([31]; read-out: TGI) was 0.122 µM. The GI50 ([31]; read-out: pGI50 (converted)) was 0.0204 µM, the CC50 [31, 36] was 3.16 µM and the TGI ([31]; read-out: pTGI (converted)) was 0.123 µM. For the same compound, the GI50 ([32]; read-out: GI50) was 1.54 µM, the CC50 [32, 35] was 6.7 µM and the TGI ([32]; read-out: TGI) was 3.21 µM. For the same compound, the GI50 ([32]; read-out: pGI50 (converted)) was 1.55 µM, the CC50 [32, 36] was 6.76 µM and the TGI ([32]; read-out: pTGI (converted)) was 3.24 µM. It also gave an Activity [33] of -89% and an Activity [34] of 34%.

Compound `CN1CCN(CCCn2c3c(sc4ncccc43)c(=O)n3nnc(-c4ccccc4)c23)CC1` has an Activity [1] of -47%, a GI50 ([2]; read-out: GI50) of 1.63 µM and a CC50 [2, 35] of 6.42 µM. For the same compound, the TGI ([2]; read-out: TGI) was 3.24 µM, the GI50 ([2]; read-out: pGI50 (converted)) was 1.62 µM and the CC50 [2, 36] was 6.46 µM. The TGI ([2]; read-out: pTGI (converted)) was 3.24 µM, the Activity [3] was 89% and the GI50 ([4]; read-out: GI50) was 18.7 µM. It also gave a CC50 [4, 35] of 59.6 µM, a TGI ([4]; read-out: TGI) of 33.4 µM and a GI50 ([4]; read-out: pGI50 (converted)) of 18.6 µM. For the same compound, the CC50 [4, 36] was 60.3 µM, the TGI ([4]; read-out: pTGI (converted)) was 33.1 µM and the Activity [5] was 95%. For the same compound, the Activity [6] was 91%, the Activity [7] was -83% and the Activity [8] was 91%. It also gave an Activity [9] of 109%, a GI50 ([10]; read-out: GI50) of 2.5 µM and a CC50 [10, 35] of over 100 µM. The TGI ([10]; read-out: TGI) was 5.62 µM, the GI50 ([10]; read-out: pGI50 (converted)) was 2.51 µM and the CC50 [10, 36] was over 100 µM. For the same compound, the TGI ([10]; read-out: pTGI (converted)) was 5.62 µM, the Activity [11] was 85% and the Activity [12] was -58%. The Activity [13] was 91%, the GI50 ([14]; read-out: GI50) was 1.87 µM and the CC50 [14, 35] was 7.16 µM. For the same compound, the TGI ([14]; read-out: TGI) was 3.66 µM, the GI50 ([14]; read-out: pGI50 (converted)) was 1.86 µM and the CC50 [14, 36] was 7.24 µM. For the same compound, the TGI ([14]; read-out: pTGI (converted)) was 3.63 µM, the Activity [15] was 96% and the Activity [16] was -62%. For the same compound, the Activity [17] was 97%, the Activity [18] was -83% and the Activity [19] was 98%. For the same compound, the Activity [20] was 100%, the Activity [21] was 98% and the Activity [22] was 53%. For the same compound, the Activity [23] was 98%, the Activity [24] was 101% and the GI50 ([25]; read-out: GI50) was 1.92 µM. For the same compound, the TGI ([25]; read-out: TGI) was 3.7 µM, the GI50 ([25]; read-out: pGI50 (converted)) was 1.91 µM and the TGI ([25]; read-out: pTGI (converted)) was 3.72 µM. For the same compound, the Activity [26] was 81%, the GI50 ([27]; read-out: GI50) was 1.87 µM and the CC50 [27, 35] was 6.56 µM. For the same compound, the TGI ([27]; read-out: TGI) was 3.5 µM, the GI50 ([27]; read-out: pGI50 (converted)) was 1.86 µM and the CC50 [27, 36] was 6.61 µM. For the same compound, the TGI ([27]; read-out: pTGI (converted)) was 3.47 µM, the Activity [28] was 107% and the Activity [29] was 95%. It also gave an Activity [30] of 87%, a GI50 ([31]; read-out: GI50) of 1.71 µM and a CC50 [31, 35] of 6.54 µM. The TGI ([31]; read-out: TGI) was 3.34 µM, the GI50 ([31]; read-out: pGI50 (converted)) was 1.7 µM and the CC50 [31, 36] was 6.61 µM. For the same compound, the TGI ([31]; read-out: pTGI (converted)) was 3.31 µM, the GI50 ([32]; read-out: GI50) was 1.61 µM and the CC50 [32, 35] was 6.81 µM. The TGI ([32]; read-out: TGI) was 3.31 µM, the GI50 ([32]; read-out: pGI50 (converted)) was 1.62 µM and the CC50 [32, 36] was 6.76 µM. The TGI ([32]; read-out: pTGI (converted)) was 3.31 µM, the Activity [33] was -84% and the Activity [34] was 99%.
